Measured values reported in US20050113450A1, “Antibacterial agents” (priority 2002, published 2005).
Values after ≈ are worked out from the molar mass of the structure shown.

These compounds were tested on SA 9218 (assay: MIC by standard agar dilution method). Conditions: Mueller Hinton agar, 10^4 to 10^5 cells per spot, incubated overnight at 35° C., lowest concentration that inhibits visible growth.
Format: cell-based
Method in brief: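 MIC read after overnight 35 °C incubation as lowest drug level preventing visible growth. Inoculum of roughly 10^4–10^5 cells per spot (0.5 McFarland, 1:20 in TSB) applied to Mueller Hinton agar containing serial 2-fold compound dilutions.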
`O=C(Nc1ccc(Br)cc1C(=O)O)c1cccc(NC(=S)Nc2ccccc2C(F)(F)F)c1` [PHA-713405] was tested, and the MIC was 128 µg/mL (≈ 238 µM).
In the case of `COc1cc(NC(=S)Nc2cccc(C(=O)Nc3ccc(Br)cc3C(=O)O)c2)cc(OC)c1OC` [PHA-713406], the MIC was 64 µg/mL (≈ 114 µM).
With `CSc1cccc(NC(=S)Nc2cccc(C(=O)Nc3ccc(Br)cc3C(=O)O)c2)c1` [PHA-713407] the MIC was 32 µg/mL (≈ 62 µM).
Compound `CC(=O)c1cccc(NC(=S)Nc2cccc(C(=O)Nc3ccc(Br)cc3C(=O)O)c2)c1` [PHA-713408] has an MIC of 64 µg/mL (≈ 125 µM).
In the case of `O=C(Nc1ccc(Br)cc1C(=O)O)c1cccc(NS(=O)(=O)c2ccccc2)c1` [PHA-713409], the MIC was 1 µg/mL (≈ 2.1 µM).
With `O=C(Nc1ccc(Br)cc1C(=O)O)c1cccc(NS(=O)(=O)c2ccc(Cl)c(Cl)c2)c1` [PHA-713410] the MIC was 1 µg/mL (≈ 1.84 µM).
Work on `Cc1ccc(S(=O)(=O)Cc2ccc(C(=O)Nc3ccc(Br)cc3C(=O)O)cc2)cc1` [PHA-713411] yielded an MIC of 32 µg/mL (≈ 65.5 µM).
In the case of `Cc1c(C(=O)Nc2ccc(Br)cc2C(=O)O)cccc1S(=O)(=O)N(C)c1ccc(Cl)cc1` [PHA-717196], the MIC was 4 µg/mL (≈ 7.44 µM).
`CC(=O)c1ccc(NC(=O)c2cccc(S(=O)(=O)N3CCc4cc(Cl)ccc43)c2)c(C(=O)O)c1` [PHA-719201] gave an MIC of 2 µg/mL (≈ 4.01 µM).
`Cc1c(C(=O)Nc2ccc(C#N)cc2C(=O)O)cccc1S(=O)(=O)N1CCc2cc(Cl)ccc21` [PHA-728844] was tested, and the MIC was 0.25 µg/mL (≈ 0.504 µM).
Compound `COc1c(C(=O)Nc2ccc(Br)cc2C(=O)O)cccc1S(=O)(=O)N(C)c1ccc(Cl)cc1` [PHA-735753] has an MIC of 16 µg/mL (≈ 28.9 µM).
`CCCCCC(=O)NCc1ccc(C(=O)Nc2ccc(C#N)cc2C(=O)O)cc1S(=O)(=O)N1CCc2ccccc21` [PHA-738531] showed an MIC of 64 µg/mL (≈ 111 µM).
Compound `CCCCCCCCCCC(=O)NCc1ccc(C(=O)Nc2ccc(C#N)cc2C(=O)O)cc1S(=O)(=O)N1CCc2ccccc21` [PHA-738532] has an MIC of 32 µg/mL (≈ 49.6 µM).
For `CC(=O)NCc1ccc(C(=O)Nc2ccc(C#N)cc2C(=O)O)cc1S(=O)(=O)N1CCc2ccccc21` [PHA-740499], the MIC was 128 µg/mL (≈ 247 µM).
Compound `N#Cc1ccc(NC(=O)c2ccc(N=[N+]=[N-])c(I)c2)c(C(=O)O)c1` [PHA-748361] has an MIC of 8 µg/mL (≈ 18.5 µM).
For `O=C(O)c1ccc(NS(=O)(=O)c2ccc(C(=O)Nc3ccc(Br)cc3C(=O)O)cc2)cc1` [PNU-276817], the MIC was 4 µg/mL (≈ 7.7 µM).
Compound `CN(c1ccc(Cl)cc1)S(=O)(=O)c1ccc(C(=O)Nc2ccc(Br)cc2C(=O)O)cc1` [PNU-276988] has an MIC of 16 µg/mL (≈ 30.5 µM).
`CCCN(CCC)Sc1ccc(C(=O)Nc2ccc(Cl)cc2C(=O)O)cc1[N+](=O)[O-]` [PNU-277231] gave an MIC of 1 µg/mL (≈ 2.21 µM).
`O=C(Nc1ccc(I)cc1C(=O)O)c1ccc(F)cc1` [PNU-281164] was tested, and the MIC was > 128 µg/mL.
Work on `O=C(Nc1ccc(Br)cc1C(=O)O)c1ccc(S(=O)(=O)Nc2nc[nH]n2)cc1` [PNU-282859] yielded an MIC of 32 µg/mL (≈ 68.6 µM).
With `CN(c1ccc(Cl)cc1)S(=O)(=O)c1cccc(C(=O)Nc2ccc(Br)cc2C(=O)O)c1` [PNU-283076] the MIC was 1 µg/mL (≈ 1.91 µM).
`O=C(Nc1ccc(Br)cc1C(=O)O)c1ccc(S(=O)(=O)n2ccc3ccccc32)cc1` [PNU-283318] showed an MIC of 0.125 µg/mL (≈ 0.25 µM).
With `O=C(Nc1ccc(Br)cc1C(=O)O)c1ccc(S(=O)(=O)n2cnc3ccccc32)cc1` [PNU-283371] the MIC was 4 µg/mL (≈ 7.99 µM).
`O=C(Nc1ccc(Cl)cc1C(=O)O)c1ccc(S(=O)(=O)N2CCc3ccccc32)c([N+](=O)[O-])c1` [PNU-283599] showed an MIC of 1 µg/mL (≈ 1.99 µM).
Compound `CCCC(CCC)S(=O)(=O)c1ccc(C(=O)Nc2ccc(Cl)cc2C(=O)O)cc1NO.Cl` [PNU-283601A] has an MIC of 32 µg/mL.
`CCCN(CCC)S(=O)(=O)c1ccc(C(=O)Nc2ccc(Cl)cc2C(=O)O)cc1N.Cl` [PNU-283603A] gave an MIC of 16 µg/mL.
`O=C(Nc1ccc(Cl)cc1C(=O)O)c1ccc(SCc2ccccc2)c([N+](=O)[O-])c1` [PNU-283604] showed an MIC of 4 µg/mL (≈ 9.03 µM).
Compound `O=C(Nc1ccc(Br)cc1C(=O)O)c1cccc(S(=O)(=O)N2CCc3cc(Cl)ccc32)c1` [PNU-288969] has an MIC of 0.25 µg/mL (≈ 0.467 µM).
`COc1ccc(S(=O)(=O)N(C)c2ccc(Cl)cc2)cc1C(=O)Nc1ccc(Br)cc1C(=O)O` [PNU-289815] gave an MIC of 8 µg/mL (≈ 14.4 µM).
`Cc1ccc(S(=O)(=O)N(C)c2ccc(Cl)cc2)cc1C(=O)Nc1ccc(Br)cc1C(=O)O` [PNU-290821] gave an MIC of 64 µg/mL (≈ 119 µM).
With `O=C(Nc1ccc(Br)cc1C(=O)O)c1ccc(NC(=O)N2CCc3ccccc32)cc1` [PNU-290877, 5-Bromo-2-({4-[(2,3-dihydro-1H-indol-1-ylcarbonyl)amino]benzoyl}amino)benzoic acid] the MIC was > 128 µg/mL.
In the case of `Nc1cc(C(=O)Nc2ccc(Cl)cc2C(=O)O)ccc1S(=O)(=O)N1CCc2ccccc21` [PNU-290881A], the MIC was 4 µg/mL (≈ 8.48 µM).
For `O=C(Nc1ccc(Cl)cc1C(=O)O)c1ccc(SCc2ccccc2)c(Br)c1` [PNU-290882], the MIC was 1 µg/mL (≈ 2.1 µM).
`O=C(Nc1ccc(Br)cc1C(=O)O)c1ccc(S(=O)(=O)n2ccc3cc(Cl)ccc32)cc1` [PNU-290905] was tested, and the MIC was 1 µg/mL (≈ 1.87 µM).
For `O=C(Nc1ccc(Br)cc1C(=O)O)c1ccc(S(=O)(=O)n2ccc3ccc(Cl)cc32)cc1` [PNU-290906], the MIC was 1 µg/mL (≈ 1.87 µM).
For `O=C(Nc1ccc(Br)cc1C(=O)O)c1ccc(S(=O)(=O)n2ccc3cc(F)c(Cl)cc32)cc1` [PNU-291010], the MIC was 1 µg/mL (≈ 1.81 µM).
`O=C(Nc1ccc(Br)cc1C(=O)O)c1ccc(S(=O)(=O)n2ccc3ccc(F)cc32)cc1` [PNU-291011] gave an MIC of 0.25 µg/mL (≈ 0.483 µM).
`CN(c1ccc(Cl)cc1)S(=O)(=O)c1ccc(Br)c(C(=O)Nc2ccc(Br)cc2C(=O)O)c1` [PNU-291061] was tested, and the MIC was 16 µg/mL (≈ 26.5 µM).
In the case of `O=C(Nc1ccc(Br)cc1C(=O)O)c1ccc(S(=O)(=O)n2ccc3cc(F)ccc32)cc1` [PNU-291129], the MIC was 0.5 µg/mL (≈ 0.966 µM).
Compound `O=C(Nc1ccc(Br)cc1C(=O)O)c1ccc(S(=O)(=O)n2cccc2)cc1` [PNU-291130] has an MIC of 4 µg/mL (≈ 8.9 µM).
In the case of `COc1ccc(C(=O)Nc2ccc(Cl)cc2C(=O)O)cc1[N+](=O)[O-]` [PNU-291408], the “SA 9218 MIC” value was 32 µg/mL.
Compound `CCCN(CCC)S(=O)(=O)c1ccc(C(=O)Nc2ccc(Cl)cc2C(=O)O)cc1Br` [PNU-291410] has an MIC of 4 µg/mL (≈ 7.72 µM).
`COc1ccc2c(ccn2S(=O)(=O)c2ccc(C(=O)Nc3ccc(Br)cc3C(=O)O)cc2)c1` [PNU-291517] was tested, and the MIC was 2 µg/mL (≈ 3.78 µM).
`COc1ccc(C(=O)Nc2ccc(Br)cc2C(=O)O)cc1S(=O)(=O)N(C)c1ccc(Cl)cc1` [PNU-291570] showed an MIC of 8 µg/mL (≈ 14.4 µM).
`Cc1ccc(C(=O)Nc2ccc(Br)cc2C(=O)O)cc1S(=O)(=O)N(C)c1ccc(Cl)cc1` [PNU-291571] was tested, and the MIC was 0.5 µg/mL (≈ 0.93 µM).
Compound `CN(c1ccc(Cl)cc1)S(=O)(=O)c1cc(C(=O)Nc2ccc(Br)cc2C(=O)O)ccc1Br` [PNU-291679] has an MIC of 1 µg/mL (≈ 1.66 µM).
`O=C(Nc1ccc(Br)cc1C(=O)O)c1ccc(S(=O)(=O)Nc2ccccc2O)cc1` [PNU-291997] was tested, and the MIC was 1 µg/mL (≈ 2.04 µM).
With `COc1ccc(C(=O)Nc2ccc(Cl)cc2C(=O)O)cc1[N+](=O)[O-]` [PNU-292070] the “SA 9218 MIC” value was 2 µg/mL.
Work on `CN(c1ccc(Cl)cc1)S(=O)(=O)c1cccc(C(=O)Nc2ccc([N+](=O)[O-])cc2C(=O)O)c1` [PNU-292379] yielded an MIC of 0.5 µg/mL (≈ 1.02 µM).
Work on `O=C(Nc1ccc(Br)cc1C(=O)O)c1ccc(C(=O)N2CCc3ccccc32)cc1` [PNU-292577] yielded an MIC of 128 µg/mL (≈ 275 µM).
In the case of `CN(c1ccc(Cl)cc1)S(=O)(=O)c1ccc(C(=O)Nc2ccc([N+](=O)[O-])cc2C(=O)O)cc1` [PNU-293032], the MIC was 16 µg/mL (≈ 32.7 µM).
Work on `O=C(Nc1ccc(Br)cc1C(=O)O)c1cccc(SCc2ccccc2)c1` [PNU-293049] yielded an MIC of 4 µg/mL (≈ 9.04 µM).
In the case of `CN(c1ccc(Cl)cc1)S(=O)(=O)c1cc(C(=O)Nc2ccc(Br)cc2C(=O)O)ccc1N1CCOCC1` [PNU-293795], the MIC was 32 µg/mL (≈ 52.6 µM).
For `N#Cc1ccc(C(=O)Nc2ccc(Br)cc2C(=O)O)cc1S(=O)(=O)N1CCc2ccccc21` [PNU-293905], the MIC was 8 µg/mL (≈ 15.2 µM).
In the case of `O=C(Nc1ccc(Cl)cc1C(=O)O)c1cccc(C(=O)c2ccccc2)c1` [drawing 1011], the MIC was 4 µg/mL (≈ 10.5 µM).
`O=C(Nc1ccc(Cl)cc1C(=O)O)c1ccc(C(=O)C2CCCC2)cc1` [drawing 1027] was tested, and the “SA 9218 MIC” value was 8 µg/mL.
With `O=C(Nc1ccc(Br)cc1C(=O)O)c1cccc(C(=NO)c2ccccc2)c1` [drawing 1035] the MIC was 0.5 µg/mL (≈ 1.14 µM).
For `O=C(Nc1ccc(Br)cc1C(=O)O)c1cccc(OCc2ccccc2)c1` [drawing 1037], the MIC was 4 µg/mL (≈ 9.38 µM).
With `CCCC(Oc1ccc(C(=O)Nc2ccc(Br)cc2C(=O)O)cc1)C(=O)OCC` (stereo not drawn) [drawing 1052] the “SA 9218 MIC” value was 64 µg/mL.
In the case of `O=C(Nc1ccc(Cl)cc1C(=O)O)c1cccc(C(=NO)c2ccco2)c1` [drawing 1086], the “SA 9218 MIC” value was 2 µg/mL.
`CCCC(Oc1ccc(C(=O)Nc2ccc(Br)cc2C(=O)O)cc1)C(=O)OCC` (stereo not drawn) [drawing 1091] was tested, and the MIC was 64 µg/mL (≈ 138 µM).
For `C=CCON=C(c1ccc(C(=O)Nc2ccc(Cl)cc2C(=O)O)cc1)c1ccco1` [drawing 1095], the MIC was 32 µg/mL (≈ 75.3 µM).
`O=C(Nc1ccc(Cl)cc1C(=O)O)c1ccc(C(=O)C2CCCC2)cc1` [drawing 1111] gave an MIC of 4 µg/mL (≈ 10.8 µM).
In the case of `O=C(Nc1ccc(Cl)cc1C(=O)O)c1cccc(C(=NO)c2ccco2)c1` [drawing 1121], the “SA 9218 MIC” value was 8 µg/mL.
In the case of `C=CCON=C(c1ccc(C(=O)Nc2ccc(Cl)cc2C(=O)O)cc1)c1ccco1` [drawing 1123], the “SA 9218 MIC” value was 64 µg/mL.
With `Cc1ccc(C(=O)Nc2ccc(Br)cc2C(=O)O)cc1S(=O)(=O)N(C)c1ccc(Cl)cc1` [drawing 1134] the “SA 9218 MIC” value was 1 µg/mL.
